According to PubChem BioAssay (NCI):
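Where inhibition never reached the appropriate level, the endpoint shown equals the highest concentration tested. Otherwise, values were interpolated linearly from a five-concentration, 48-hour dose response in 96-well plates. GI50: concentration for 50% inhibition of growth. TGI marks complete inhibition of growth.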

Legend:
Assay in all cases: DTP human tumour cell line panel, 48 h
[1] = tested on: SW-620 colon
[2] = tested on: KM12 colon
[3] = tested on: MDA-MB-231 breast
[4] = tested on: OVCAR-5 ovarian
[5] = tested on: MDA-MB-435
[6] = tested on: OVCAR-4 ovarian
[7] = tested on: HCC-2998 colon
[8] = tested on: UACC-257 melanoma
[9] = tested on: SK-OV-3 ovarian
[10] = tested on: MALME-3M melanoma

SMILES | GI50 [1] | TGI [1] | GI50 [2] | TGI [2] | GI50 [3] | TGI [3] | GI50 [4] | TGI [4] | GI50 [5] | TGI [5] | GI50 [6] | TGI [6] | GI50 [7] | TGI [7] | GI50 [8] | TGI [8] | TGI [9] | TGI [10] | GI50 [9] | GI50 [10]
Nc1nc(/C=C\c2ccccc2)nc(N2CCN(c3ccccc3)CC2)n1 | 36.3 µM | > 100 µM | 27.2 µM | 60.6 µM | 19.2 µM | 53.4 µM | 58.7 µM | > 100 µM | 28.4 µM | 70.2 µM | 37.2 µM | > 100 µM | 17.9 µM | 41.5 µM | 29.1 µM | 68.5 µM |  |  |  | 
N#CC(C(=O)/C(=N\NC(N)=O)C(C#N)c1ccccc1)c1ccccc1 (configuration not stated) |  | > 100 µM |  | > 100 µM |  |  |  | > 100 µM |  |  |  | > 100 µM |  | > 100 µM |  | > 100 µM | > 100 µM | > 100 µM |  | 
N/N=C(/Cc1nc2ccc(C(=O)c3ccccc3)cc2[nH]c1=O)C(=O)Nc1ccc([N+](=O)[O-])cc1[N+](=O)[O-] |  | > 100 µM |  | > 100 µM |  |  | > 100 µM | > 100 µM |  |  |  | 71.5 µM | > 100 µM | > 100 µM |  | > 100 µM | > 100 µM | > 100 µM |  | 
CCOC(=O)CC(NC(=O)c1[nH]cnc1/N=N/N(C)C)C(=O)OCC (configuration not stated) |  | > 100 µM |  | > 100 µM |  |  |  | > 100 µM |  |  |  | > 100 µM |  | > 100 µM |  | > 100 µM | > 100 µM | > 100 µM |  | 
CC(=O)[CH-]C(=O)c1ccccc1.CC(=O)[CH-]C(=O)c1ccccc1.O=S(=O)([O-])c1cc([O-])c2c([O-])cc(S(=O)(=O)[O-])cc2c1.[Na+].[Zr+4] | > 100 µM | > 100 µM | > 100 µM | > 100 µM |  |  | > 100 µM | > 100 µM |  |  | > 100 µM | > 100 µM | > 100 µM | > 100 µM | 87.2 µM | > 100 µM | > 100 µM | > 100 µM | > 100 µM | 53.1 µM
CCNC(=O)OCc1c(COC(=O)NCC)c(-c2ccc(Cl)c(Cl)c2)n2c1CCC2 |  | 68.8 µM |  | 59 µM |  |  |  | 59.1 µM |  |  |  | 36.1 µM |  | 27.7 µM |  | 83.8 µM |  | 30.7 µM |  | 
O=C(Nc1ccc(Cl)cc1Cl)OC(Cn1cncn1)c1ccc(Cl)cc1Cl (configuration not stated) |  | 30.4 µM |  | 31 µM |  |  |  |  |  |  |  | 28 µM |  |  |  | 30.9 µM | 34.7 µM | 29.3 µM |  | 
COC(=O)C1=CC2C=CC(C1C(=O)OC)C1C(C(=O)OC)=C(C(=O)OC)C(C(=O)OC)=C(C(=O)OC)C21OC (configuration not stated) |  | > 100 µM |  |  |  |  |  | > 100 µM |  |  |  | > 100 µM |  | > 100 µM |  | > 100 µM | > 100 µM | > 100 µM |  | 
COc1cc(OC)cc(-c2cc(=O)c3cc4c(cc3[nH]2)OCO4)c1 |  | > 100 µM |  |  |  |  |  | > 63.1 µM |  |  |  | > 96.1 µM |  | 0.787 µM |  | > 100 µM | 4.49 µM | > 100 µM |  | 
COc1ccc(/C=C2/SC(Nc3nc(-c4nc(NC5=NC(=O)/C(=C\c6ccc(OC)cc6)S5)sc4C)c(C)s3)=NC2=O)cc1 | 1.31 µM | > 50 µM | 0.196 µM | 5.77 µM | 1.35 µM | 7.14 µM | 5.18 µM | 24.5 µM | 0.143 µM | 0.633 µM |  |  | 0.82 µM | 3.66 µM | 2.22 µM | 15.4 µM |  |  |  | 
O=C(/C=C/c1cccc([N+](=O)[O-])c1)c1ccc([N+](=O)[O-])cc1 |  | > 100 µM |  | > 100 µM |  |  |  | > 100 µM |  |  |  | > 100 µM |  | > 100 µM |  | > 100 µM | > 100 µM | > 100 µM |  | 
COc1cccc(C2SC(N)=Nc3c2c(C)nn3C(=O)Cc2ccccc2)c1 (configuration not stated) |  | > 100 µM |  | > 100 µM |  | > 100 µM |  |  |  | > 100 µM |  |  |  | > 100 µM |  | > 100 µM | > 100 µM | > 100 µM |  | 
O=C1c2ccccc2C2CCC1c1ccccc12 (configuration not stated) |  | > 100 µM |  | > 100 µM |  |  |  | > 100 µM |  |  |  | 76.1 µM |  | > 100 µM |  | 76.6 µM | > 100 µM | 51.8 µM |  | 
CN(/N=C/c1ccnc2ccccc12)c1c([N+](=O)[O-])cc([N+](=O)[O-])cc1[N+](=O)[O-] |  | > 100 µM |  | > 100 µM |  |  |  | > 100 µM |  |  |  | > 100 µM |  | > 100 µM |  | > 100 µM | > 100 µM | 99.1 µM |  | 
CNS(=O)(=O)NNS(=O)(=O)c1ccc(OC)cc1 |  | > 100 µM |  | > 100 µM |  |  |  |  |  |  |  | > 100 µM |  | > 100 µM |  | > 100 µM | > 100 µM | > 100 µM |  | 
CC1NC(=O)C2=C1C(=O)NC(=O)C2 (configuration not stated) | > 100 µM | > 100 µM | > 100 µM | > 100 µM | > 100 µM | > 100 µM | > 100 µM | > 100 µM | > 100 µM | > 100 µM |  |  | > 100 µM | > 100 µM | > 100 µM | > 100 µM |  |  |  | 
CC1=CC(C)(C)NN1C1=NS(=O)(=O)c2ccccc2N1C |  | > 100 µM |  | > 100 µM |  | > 100 µM |  | > 100 µM |  | > 100 µM |  | > 100 µM |  | > 100 µM |  | > 100 µM | > 100 µM |  |  | 
CC1C2C=C(O)C(=O)C(C2=O)C1c1ccccc1 (configuration not stated) |  | > 100 µM |  | > 100 µM |  |  |  | > 100 µM |  |  |  | > 100 µM |  | > 100 µM |  | > 100 µM | > 100 µM | > 100 µM |  | 
COc1c(-c2ccccc2)nc2ccc(Oc3ccccc3)nn12 |  | > 100 µM |  | > 100 µM |  |  |  | > 100 µM |  |  |  | > 71.3 µM |  | > 100 µM |  | > 96.5 µM | > 100 µM | > 92.6 µM |  | 
Cn1cc2ccccc2c1-c1nc(F)nc(Oc2ccc3c(c2)CC[C@@H]2C3CC[C@@]3(C)C2C[C@H](O)[C@@H]3O)n1 (some centres not stated) |  | 15.8 µM |  | 36.1 µM |  |  |  | 39.2 µM |  |  |  |  |  | 29.9 µM |  | 81.6 µM | 52.2 µM | 75.4 µM |  | 
COC(=O)C1C(=O)O[C@@H](c2cc(OC)c(OC)cc2OC)C1C(=O)OC (mixture of isomers) |  | > 100 µM |  | > 100 µM |  |  |  | > 100 µM |  |  |  | > 100 µM |  | > 100 µM |  | > 100 µM | > 100 µM | > 100 µM |  | 
